According to the kinase profiling compilation of Christmann-Franck et al. (2016):
“And” between values parts separate entries of the source, which are not always exact repeats. Equal entries are not always repeated.

What was measured:
Test in all cases: radiometric filter-binding kinase assay, Kinase HotSpot
Conditions in all cases: compound 0.5 µM; ATP 10 µM
[1] = molecular target: INSRR (human) (UniProt P14616)
[2] = molecular target: ERBB2 (human) (UniProt P04626)
[3] = molecular target: MAP3K2 (human) (UniProt Q9Y2U5)
[4] = molecular target: PKN1 (human) (UniProt Q16512)
[5] = molecular target: CSNK1D (human) (UniProt P48730)
[6] = molecular target: HIPK3 (human) (UniProt Q9H422)
[7] = molecular target: MARK3 (human) (UniProt P27448)
[8] = molecular target: SYK (human) (UniProt P43405)
[9] = molecular target: MAPKAPK3 (human) (UniProt Q16644)
[10] = molecular target: CAMKK2 (human) (UniProt Q96RR4)
[11] = molecular target: FES (human) (UniProt P07332)
[12] = molecular target: PHKG2 (human) (UniProt P15735)
[13] = molecular target: JAK2 JH1 JH2 (human) (UniProt O60674)
[14] = molecular target: PRKCA (human) (UniProt P17252)
[15] = molecular target: CDK9 CCNK (human) (UniProt O75909+P50750)
[16] = molecular target: EPHB2 (human) (UniProt P29323)
[17] = molecular target: BRSK1 (human) (UniProt Q8TDC3)
[18] = molecular target: DYRK1B (human) (UniProt Q9Y463)
[19] = molecular target: DSTYK (human) (UniProt Q6XUX3)
[20] = molecular target: PAK7 (human) (UniProt Q9P286)
[21] = molecular target: ABL1 (human) (UniProt P00519)
[22] = molecular target: MKNK2 (human) (UniProt Q9HBH9)
[23] = molecular target: MST4 (human) (UniProt Q9P289)
[24] = molecular target: MINK1 (human) (UniProt Q8N4C8)
[25] = molecular target: CDK5 CDK5R1 p25 (human) (UniProt Q00535+Q15078)
[26] = molecular target: CLK3 (human) (UniProt P49761)
[27] = molecular target: IGF1R (human) (UniProt P08069)
[28] = molecular target: CSNK1E (human) (UniProt P49674)
[29] = molecular target: IRAK4 (human) (UniProt Q9NWZ3)
[30] = molecular target: MAP3K14 (human) (UniProt Q99558)
[31] = molecular target: SRPK3 (human) (UniProt Q9UPE1)
[32] = molecular target: MAPK9 (human) (UniProt P45984)
[33] = molecular target: CSK (human) (UniProt P41240)
[34] = molecular target: PRKX (human) (UniProt P51817)
[35] = molecular target: EPHA7 (human) (UniProt Q15375)
[36] = molecular target: ULK2 (human) (UniProt Q8IYT8)
[37] = molecular target: PRKG1 (human) (UniProt Q13976)
[38] = molecular target: NEK6 (human) (UniProt Q9HC98)
[39] = molecular target: MLTK (human) (UniProt Q9NYL2)
[40] = molecular target: NLK (human) (UniProt Q9UBE8)
[41] = molecular target: FLT1 (human) (UniProt P17948)
[42] = molecular target: ABL2 (human) (UniProt P42684)
ABL2 (human), sequence (P42684 whole entry, looked up): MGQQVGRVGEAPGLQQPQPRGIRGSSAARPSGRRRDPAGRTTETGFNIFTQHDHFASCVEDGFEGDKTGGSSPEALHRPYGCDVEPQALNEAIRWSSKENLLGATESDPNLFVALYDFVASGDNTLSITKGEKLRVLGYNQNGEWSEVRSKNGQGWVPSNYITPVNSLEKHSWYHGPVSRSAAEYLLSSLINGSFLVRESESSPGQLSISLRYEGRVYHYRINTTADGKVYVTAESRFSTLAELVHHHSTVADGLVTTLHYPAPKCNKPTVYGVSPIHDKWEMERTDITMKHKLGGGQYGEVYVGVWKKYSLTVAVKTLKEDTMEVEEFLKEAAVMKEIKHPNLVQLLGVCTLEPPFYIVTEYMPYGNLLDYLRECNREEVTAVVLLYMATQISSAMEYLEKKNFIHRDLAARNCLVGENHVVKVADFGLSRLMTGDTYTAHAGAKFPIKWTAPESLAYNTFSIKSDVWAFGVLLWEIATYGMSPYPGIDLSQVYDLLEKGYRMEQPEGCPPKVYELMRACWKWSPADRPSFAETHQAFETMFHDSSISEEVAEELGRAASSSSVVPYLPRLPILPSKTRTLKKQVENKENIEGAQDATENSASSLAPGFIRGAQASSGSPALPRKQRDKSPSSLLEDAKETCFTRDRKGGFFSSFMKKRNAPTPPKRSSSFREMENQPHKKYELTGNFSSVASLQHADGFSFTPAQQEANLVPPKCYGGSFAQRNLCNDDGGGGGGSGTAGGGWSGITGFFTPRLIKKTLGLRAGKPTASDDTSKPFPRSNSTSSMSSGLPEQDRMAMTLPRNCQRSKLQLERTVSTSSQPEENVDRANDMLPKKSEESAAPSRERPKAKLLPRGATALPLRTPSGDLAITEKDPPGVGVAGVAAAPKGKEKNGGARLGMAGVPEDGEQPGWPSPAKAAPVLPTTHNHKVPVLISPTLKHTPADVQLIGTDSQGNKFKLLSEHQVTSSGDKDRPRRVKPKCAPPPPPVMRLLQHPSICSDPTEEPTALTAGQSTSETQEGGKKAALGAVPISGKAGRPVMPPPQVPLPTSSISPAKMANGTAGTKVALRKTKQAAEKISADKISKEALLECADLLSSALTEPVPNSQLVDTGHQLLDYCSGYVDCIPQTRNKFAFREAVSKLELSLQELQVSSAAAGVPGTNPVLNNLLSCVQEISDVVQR

PRKG1 (human), sequence (Q13976 whole entry, looked up): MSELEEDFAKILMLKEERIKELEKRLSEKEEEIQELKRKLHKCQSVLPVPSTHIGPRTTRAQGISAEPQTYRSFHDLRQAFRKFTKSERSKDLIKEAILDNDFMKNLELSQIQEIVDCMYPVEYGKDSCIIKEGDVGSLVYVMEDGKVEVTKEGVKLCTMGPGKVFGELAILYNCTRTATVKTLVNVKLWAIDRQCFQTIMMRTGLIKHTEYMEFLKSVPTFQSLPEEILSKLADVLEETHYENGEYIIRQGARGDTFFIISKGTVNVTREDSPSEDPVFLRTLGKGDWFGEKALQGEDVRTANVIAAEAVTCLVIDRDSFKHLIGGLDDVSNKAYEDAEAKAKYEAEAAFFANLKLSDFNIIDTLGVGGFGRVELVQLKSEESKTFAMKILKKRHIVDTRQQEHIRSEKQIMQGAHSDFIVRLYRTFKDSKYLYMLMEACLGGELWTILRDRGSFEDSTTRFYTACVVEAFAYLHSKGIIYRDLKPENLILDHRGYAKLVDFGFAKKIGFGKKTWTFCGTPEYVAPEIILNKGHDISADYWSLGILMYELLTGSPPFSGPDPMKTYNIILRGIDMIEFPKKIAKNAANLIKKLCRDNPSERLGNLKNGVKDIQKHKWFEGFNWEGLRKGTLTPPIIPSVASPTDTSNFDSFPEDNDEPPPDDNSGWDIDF
CDK9 CCNK (human), sequence (O75909 whole entry, looked up): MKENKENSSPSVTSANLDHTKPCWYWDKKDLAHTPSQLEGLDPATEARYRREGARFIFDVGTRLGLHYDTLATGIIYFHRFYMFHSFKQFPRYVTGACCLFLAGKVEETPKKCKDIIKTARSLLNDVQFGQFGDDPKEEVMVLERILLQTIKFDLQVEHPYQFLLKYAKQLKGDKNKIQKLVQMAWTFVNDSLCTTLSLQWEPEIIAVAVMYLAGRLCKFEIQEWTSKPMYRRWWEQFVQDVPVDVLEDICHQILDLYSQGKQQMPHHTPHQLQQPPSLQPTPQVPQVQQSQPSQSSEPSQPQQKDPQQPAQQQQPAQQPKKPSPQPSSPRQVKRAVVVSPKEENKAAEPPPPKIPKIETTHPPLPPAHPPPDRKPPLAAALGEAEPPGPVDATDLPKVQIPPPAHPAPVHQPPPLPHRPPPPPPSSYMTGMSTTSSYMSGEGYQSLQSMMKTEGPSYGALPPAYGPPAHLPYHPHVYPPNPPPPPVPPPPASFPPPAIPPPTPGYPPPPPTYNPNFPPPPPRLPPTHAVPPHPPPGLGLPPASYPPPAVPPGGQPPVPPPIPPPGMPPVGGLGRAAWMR
CDK9 CCNK (human), sequence (P50750 whole entry, looked up): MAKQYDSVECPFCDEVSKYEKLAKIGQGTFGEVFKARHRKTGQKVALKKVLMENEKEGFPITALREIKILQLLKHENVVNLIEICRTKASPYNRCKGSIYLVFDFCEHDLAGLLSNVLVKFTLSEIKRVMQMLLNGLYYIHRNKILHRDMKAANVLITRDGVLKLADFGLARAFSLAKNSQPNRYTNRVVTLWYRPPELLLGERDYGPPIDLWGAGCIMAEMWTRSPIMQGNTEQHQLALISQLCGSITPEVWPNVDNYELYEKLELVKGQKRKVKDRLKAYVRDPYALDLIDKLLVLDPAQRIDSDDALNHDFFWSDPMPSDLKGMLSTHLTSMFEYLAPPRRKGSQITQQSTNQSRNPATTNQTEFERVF
ULK2 (human), sequence (Q8IYT8 whole entry, looked up): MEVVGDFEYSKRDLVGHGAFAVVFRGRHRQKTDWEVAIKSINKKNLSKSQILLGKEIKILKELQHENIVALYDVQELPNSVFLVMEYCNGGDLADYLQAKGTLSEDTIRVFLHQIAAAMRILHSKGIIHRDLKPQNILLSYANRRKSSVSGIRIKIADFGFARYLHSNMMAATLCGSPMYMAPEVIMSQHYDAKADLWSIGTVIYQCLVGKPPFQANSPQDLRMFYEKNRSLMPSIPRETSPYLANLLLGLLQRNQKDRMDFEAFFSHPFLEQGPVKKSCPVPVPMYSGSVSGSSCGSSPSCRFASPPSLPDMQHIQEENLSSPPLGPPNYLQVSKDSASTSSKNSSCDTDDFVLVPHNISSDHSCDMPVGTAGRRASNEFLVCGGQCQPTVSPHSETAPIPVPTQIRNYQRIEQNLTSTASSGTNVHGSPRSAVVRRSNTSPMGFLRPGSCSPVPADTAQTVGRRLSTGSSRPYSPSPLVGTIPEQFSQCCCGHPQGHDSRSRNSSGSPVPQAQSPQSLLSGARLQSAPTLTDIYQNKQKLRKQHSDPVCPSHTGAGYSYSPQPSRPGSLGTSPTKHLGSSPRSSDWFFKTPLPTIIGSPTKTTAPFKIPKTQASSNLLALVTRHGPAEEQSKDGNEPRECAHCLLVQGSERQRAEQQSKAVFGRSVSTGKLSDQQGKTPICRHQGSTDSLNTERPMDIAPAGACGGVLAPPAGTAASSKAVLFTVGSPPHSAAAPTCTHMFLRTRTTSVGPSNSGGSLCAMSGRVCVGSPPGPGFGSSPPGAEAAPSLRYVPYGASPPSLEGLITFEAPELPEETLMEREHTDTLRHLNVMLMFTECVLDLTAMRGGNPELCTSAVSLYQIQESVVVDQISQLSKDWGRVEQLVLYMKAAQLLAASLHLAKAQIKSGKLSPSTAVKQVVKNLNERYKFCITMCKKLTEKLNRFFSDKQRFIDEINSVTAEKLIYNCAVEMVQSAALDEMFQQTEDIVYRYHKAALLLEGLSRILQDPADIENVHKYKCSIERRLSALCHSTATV
DYRK1B (human), sequence (Q9Y463 whole entry, looked up): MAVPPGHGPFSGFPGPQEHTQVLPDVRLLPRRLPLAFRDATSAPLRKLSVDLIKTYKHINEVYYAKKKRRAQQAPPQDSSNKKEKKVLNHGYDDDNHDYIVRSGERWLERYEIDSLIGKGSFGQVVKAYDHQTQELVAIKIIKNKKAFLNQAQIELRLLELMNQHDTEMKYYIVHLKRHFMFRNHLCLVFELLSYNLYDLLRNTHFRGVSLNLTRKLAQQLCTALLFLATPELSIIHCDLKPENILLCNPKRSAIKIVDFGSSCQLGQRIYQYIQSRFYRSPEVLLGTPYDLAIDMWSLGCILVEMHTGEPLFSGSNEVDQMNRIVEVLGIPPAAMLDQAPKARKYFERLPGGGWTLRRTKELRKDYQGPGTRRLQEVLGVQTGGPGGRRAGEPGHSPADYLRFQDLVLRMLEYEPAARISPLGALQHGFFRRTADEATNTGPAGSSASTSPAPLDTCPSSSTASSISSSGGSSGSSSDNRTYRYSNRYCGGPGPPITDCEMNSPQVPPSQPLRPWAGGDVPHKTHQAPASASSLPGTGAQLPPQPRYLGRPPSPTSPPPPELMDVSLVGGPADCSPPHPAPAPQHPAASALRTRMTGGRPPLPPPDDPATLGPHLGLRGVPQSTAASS
SRPK3 (human), sequence (Q9UPE1 whole entry, looked up): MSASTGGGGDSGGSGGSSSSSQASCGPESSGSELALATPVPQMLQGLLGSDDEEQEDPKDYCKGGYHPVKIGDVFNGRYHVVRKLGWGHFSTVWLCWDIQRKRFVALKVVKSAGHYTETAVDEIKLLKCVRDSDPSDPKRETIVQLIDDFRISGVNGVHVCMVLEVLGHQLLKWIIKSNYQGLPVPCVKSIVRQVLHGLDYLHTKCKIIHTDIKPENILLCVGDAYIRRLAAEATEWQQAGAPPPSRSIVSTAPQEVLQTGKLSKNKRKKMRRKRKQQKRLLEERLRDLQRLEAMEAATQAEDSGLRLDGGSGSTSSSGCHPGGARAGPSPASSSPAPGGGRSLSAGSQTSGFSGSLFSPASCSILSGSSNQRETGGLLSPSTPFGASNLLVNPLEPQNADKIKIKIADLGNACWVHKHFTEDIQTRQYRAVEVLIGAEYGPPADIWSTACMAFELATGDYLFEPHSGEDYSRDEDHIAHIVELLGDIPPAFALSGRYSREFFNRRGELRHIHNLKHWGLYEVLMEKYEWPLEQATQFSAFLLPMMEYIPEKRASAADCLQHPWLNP

`COc1cccc(-c2cc(=O)c3ccccc3o2)c1N` showed a residual activity [1] of 98.4%, a residual activity [2] of 106% and a residual activity [3] of 103%. For the same compound, the residual activity [4] was 102%, the residual activity [5] was 99.1% and the residual activity [6] was 101%. It also gave a residual activity [7] of 86.7%, a residual activity [8] of 97.2% and a residual activity [9] of 88.1%. For the same compound, the residual activity [10] was 92.5%, the residual activity [11] was 94.3% and the residual activity [12] was 117%. It also gave a residual activity [13] of 104%, a residual activity [14] of 102% and a residual activity [15] of 98.3%. It also gave a residual activity [16] of 88%, a residual activity [17] of 84.9% and a residual activity [18] of 88.1%. For the same compound, the residual activity [19] was 97.1%, the residual activity [20] was 99.7% and the residual activity [21] was 93.9%. For the same compound, the residual activity [22] was 108%, the residual activity [23] was 110% and the residual activity [24] was 96.2%. For the same compound, the residual activity [25] was 87.5%, the residual activity [26] was 95.4% and the residual activity [27] was 91.3%. It also gave a residual activity [28] of 97.5%, a residual activity [29] of 86.4% and a residual activity [30] of 108%. The residual activity [31] was 91%, the residual activity [32] was 89.8% and the residual activity [33] was 83.7%. For the same compound, the residual activity [34] was 101%, the residual activity [35] was 98.6% and the residual activity [36] was 109%. For the same compound, the residual activity [37] was 108% and 111%, the residual activity [38] was 102% and the residual activity [39] was 103%. For the same compound, the residual activity [40] was 96.4%, the residual activity [41] was 87.7% and the residual activity [42] was 96.8%.
With `O=C(O)c1ccc2c3c1cccc3c(=O)n1c3ccccc3nc21` the residual activity [1] was 101%, the residual activity [2] was 99.7% and the residual activity [3] was 90.7%. For the same compound, the residual activity [4] was 99.5%, the residual activity [5] was 101% and the residual activity [6] was 103%. It also gave a residual activity [7] of 82.6%, a residual activity [8] of 96% and a residual activity [9] of 103%. It also gave a residual activity [10] of 7.88%, a residual activity [11] of 98.2% and a residual activity [12] of 94.7%. It also gave a residual activity [13] of 86.7%, a residual activity [14] of 101% and a residual activity [15] of 76.4%. The residual activity [16] was 104%, the residual activity [17] was 89% and the residual activity [18] was 40.1%. The residual activity [19] was 103%, the residual activity [20] was 98.7% and the residual activity [21] was 99.3%. The residual activity [22] was 57.2%, the residual activity [23] was 97.8% and the residual activity [24] was 79.8%. The residual activity [25] was 80.6%, the residual activity [26] was 95.4% and the residual activity [27] was 100%. It also gave a residual activity [28] of 96%, a residual activity [29] of 107% and a residual activity [30] of 94.8%. The residual activity [31] was 82.8%, the residual activity [32] was 97.5% and the residual activity [33] was 101%. For the same compound, the residual activity [34] was 93.7%, the residual activity [35] was 103% and the residual activity [36] was 93.9%. For the same compound, the residual activity [37] was 94% and 95.1%, the residual activity [38] was 115% and the residual activity [39] was 100%. The residual activity [40] was 96.1%, the residual activity [41] was 86.5% and the residual activity [42] was 100%.
